Target: T1, chicken gizzard smooth muscle myosin subfragment-1 chemically crosslinked to cardiac or skeletal actin (Gallus gallus, UniProt P10587)
T1 construct: chicken gizzard smooth muscle myosin subfragment-1; from tissue; host or cells: chicken gizzard
Assay: Smooth muscle myosin ATPase dose response assay (pyruvate kinase/horseradish peroxidase/pyruvate oxidase-coupled, amplex red fluorescence)
Format: biochemical
Conditions: read-out: IC50 Arithmetic Mean
Summary of the method: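 EDC/NHS-crosslinked S1–actin, amount set per prep by rate titration. Buffer: 12 mM K-PIPES pH 7.00 (22° C), 100 mM KCl, 2 mM MgCl2, 0.15 mM ATP, 0.1 mM PEP, 2 mM KPi, 0.1 mM amplex red. Read ex 480/em 615 nm; IC50 = midpoint, 4-param Hill fit.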

T1 sequence (P02607 2-151): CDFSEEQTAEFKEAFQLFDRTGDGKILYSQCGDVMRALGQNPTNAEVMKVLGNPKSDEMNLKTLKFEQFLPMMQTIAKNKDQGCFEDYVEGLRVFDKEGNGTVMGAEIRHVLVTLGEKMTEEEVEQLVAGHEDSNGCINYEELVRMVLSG
T1 sequence (P10587 84-789): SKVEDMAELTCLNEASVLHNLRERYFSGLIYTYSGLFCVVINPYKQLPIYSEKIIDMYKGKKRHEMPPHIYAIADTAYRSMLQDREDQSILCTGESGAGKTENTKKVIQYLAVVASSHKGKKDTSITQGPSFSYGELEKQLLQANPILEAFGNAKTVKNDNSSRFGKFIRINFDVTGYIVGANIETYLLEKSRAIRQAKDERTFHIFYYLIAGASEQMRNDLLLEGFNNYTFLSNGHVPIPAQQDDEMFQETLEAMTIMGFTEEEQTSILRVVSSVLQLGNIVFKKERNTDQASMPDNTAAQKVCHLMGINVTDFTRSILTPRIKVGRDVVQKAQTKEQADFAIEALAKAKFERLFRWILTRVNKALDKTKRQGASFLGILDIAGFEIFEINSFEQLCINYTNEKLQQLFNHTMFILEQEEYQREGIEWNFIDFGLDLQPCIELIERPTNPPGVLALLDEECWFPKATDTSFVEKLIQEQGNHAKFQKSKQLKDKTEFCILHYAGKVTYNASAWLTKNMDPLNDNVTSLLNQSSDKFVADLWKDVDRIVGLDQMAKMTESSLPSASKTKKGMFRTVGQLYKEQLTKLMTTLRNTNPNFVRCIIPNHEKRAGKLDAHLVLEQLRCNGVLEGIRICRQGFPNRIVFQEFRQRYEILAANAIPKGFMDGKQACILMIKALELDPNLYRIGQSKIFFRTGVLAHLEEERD

IC50 [nM] | Structure (SMILES)
83 | N#Cc1ccccc1-c1ccc(C(=O)NC[C@H]2CCN2C(=O)[C@H](N)CO)c(NCCc2cccc(F)c2)n1 [N-{[(2R)-1-((2R)-2-amino-3-hydroxypropanoyl)azetidin-2-yl]methyl}(6-(2-cyanophenyl)-2-{[2-(3-fluorophenyl)ethyl]amino}(3-pyridyl))carboxamide]
41 | COc1ccc(C#N)c(-c2ccc(C(=O)NCc3cccnc3)c(NCCc3cccc(F)c3)n2)c1 [(6-(2-cyano-5-methoxyphenyl)-2-{[2-(3-fluorophenyl)ethyl]amino}(3-pyridyl))-N-(3-pyridylmethyl)carboxamide]
5540 | N#Cc1ccccc1-c1ccc(C(=O)NC[C@H]2O[C@@H](O)[C@H](O)[C@@H](O)[C@@H]2O)c(NCCc2cccc(F)c2)n1
12 | NCc1ncccc1CNC(=O)c1cc(F)c(-c2cn[nH]c2)nc1NCCc1cccc(F)c1 [N-{[2-(aminomethyl)(3-pyridyl)]methyl}(5-fluoro-2-{[2-(3-fluorophenyl)ethyl]amino}-6-pyrazol-4-yl(3-pyridyl))carboxamide]
2520 | Cn1cc(-c2nc(NCCc3cccc(F)c3)c(C(=O)NC[C@H]3CCCN3C(=O)OC(C)(C)C)cc2C#N)cn1 [tert-butyl (2R)-2-{[(5-cyano-2-{[2-(3-fluorophenyl)ethyl]amino}-6-(1-methylpyrazol-4-yl)(3-pyridyl))carbonylamino]methyl}pyrrolidinecarboxylate]
512 | N#Cc1ccccc1-c1nc(NCCc2cccc(F)c2)c(C(=O)NCc2cccnc2)cc1Cl [(5-chloro-6-(2-cyanophenyl)-2-{[2-(3-fluorophenyl)ethyl]amino}(3-pyridyl))-N-(3-pyridylmethyl)carboxamide]
32 | N#Cc1ccccc1-c1ccc(C(=O)NC[C@H]2CCCC(=O)N2CCCCN)c(NCCc2cccc(F)c2)n1 [N-{[(2R)-1-(4-aminobutyl)-6-oxo(2-piperidyl)]methyl}(6-(2-cyanophenyl)-2-{[2-(3-fluorophenyl)ethyl]amino}(3-pyridyl))carboxamide]
604 | N#Cc1ccccc1-c1ccc(C(=O)NCc2cccc(C(F)(F)F)n2)c(NCCc2cccc(F)c2)n1 [(6-(2-cyanophenyl)-2-{[2-(3-fluorophenyl)ethyl]amino}(3-pyridyl))-N-{[6-(trifluoromethyl)(2-pyridyl)]methyl}carboxamide]
21 | N#Cc1ccccc1-c1ccc(C(=O)NCc2ccno2)c(NCCc2cccc(F)c2)n1 [(6-(2-cyanophenyl)-2-{[2-(3-fluorophenyl)ethyl]amino}(3-pyridyl))-N-(isoxazol-5-ylmethyl)carboxamide]
1550 | N#Cc1ccccc1-c1ccc(C(=O)NCCNS(=O)(=O)CCN)c(NCCc2cccc(F)c2)n1 [N-(2-{[(2-aminoethyl)sulfonyl]amino}ethyl)(6-(2-cyanophenyl)-2-{[2-(3-fluorophenyl)ethyl]amino}(3-pyridyl))carboxamide]
24 | NCCc1cccc(CNC(=O)c2ccc(-c3ccccc3)nc2NCCc2cccc(F)c2)n1 [N-{[6-(2-aminoethyl)(2-pyridyl)]methyl}(2-{[2-(3-fluorophenyl)ethyl]amino}-6-phenyl(3-pyridyl))carboxamide]
14200 | C[C@H](CNC(=O)c1cc(F)c(-c2cn[nH]c2)nc1NCC(O)c1cccc(F)c1)NC(=O)CNC(=O)OC(C)(C)C (stereo partly drawn)
43700 | O=C(NCC1CCNCC1)c1ccc(-c2ccccc2)nc1NCCc1ccccn1 [{6-phenyl-2-[(2-(2-pyridyl)ethyl)amino](3-pyridyl)}-N-(4-piperidylmethyl)carboxamide]
155 | N#Cc1ccccc1-c1ccc(C(=O)NC[C@H]2CNCC(=O)N2)c(NCCc2cccc(F)c2)n1 [N-[((2R)-6-oxopiperazin-2-yl)methyl](6-(2-cyanophenyl)-2-{[2-(3-fluorophenyl)ethyl]amino}(3-pyridyl))carboxamide]
24 | N#Cc1ccccc1-c1ccc(C(=O)NCc2cccnc2)c(NCCc2cccc(F)c2)n1 [(6-(2-cyanophenyl)-2-{[2-(3-fluorophenyl)ethyl]amino}(3-pyridyl))-N-(3-pyridylmethyl)carboxamide]
7750 | CC(=O)N1CCN(c2ccc(CNC(=O)c3ccc(-c4ccccc4C#N)nc3NCCc3cccc(F)c3)cn2)CC1 [N-{[6-(4-acetylpiperazinyl)(3-pyridyl)]methyl}(6-(2-cyanophenyl)-2-{[2-(3-fluorophenyl)ethyl]amino}(3-pyridyl))carboxamide]
186 | COC(=O)[C@H](C)CNC(=O)c1ccc(-c2ccccc2C#N)nc1NCCc1cccc(F)c1 [methyl (2R)-3-[(6-(2-cyanophenyl)-2-{[2-(3-fluorophenyl)ethyl]amino}(3-pyridyl))carbonylamino]-2-methylpropanoate]

IC50 [nM] | Structure (SMILES)
4810 | N#Cc1ccccc1-c1ccc(C(=O)NCC(O)CN)c(NCCc2cccc(F)c2)n1 (stereo not drawn) [N-(3-amino-2-hydroxypropyl)(6-(2-cyanophenyl)-2-{[2-(3-fluorophenyl)ethyl]amino}(3-pyridyl))carboxamide]
52500 | NCC(O)c1ccc(-c2ccccc2)nc1NCCc1cccc(F)c1 (stereo not drawn) [2-amino-1-(2-{[2-(3-fluorophenyl)ethyl]amino}-6-phenyl(3-pyridyl))ethan-1-ol]
59 | N#Cc1ccccc1-c1ccc(C(=O)NCC2CCCN(CCO)C2=O)c(NCCc2cccc(F)c2)n1 (stereo not drawn) [(6-(2-cyanophenyl)-2-{[2-(3-fluorophenyl)ethyl]amino}(3-pyridyl))-N-{[1-(2-hydroxyethyl)-2-oxo(3-piperidyl)]methyl}carboxamide]
2480 | CC(C)CCNc1nc(-c2ccccc2)ccc1C(=O)NCc1cccnc1 [{2-[3-methylbutyl)amino]-6-phenyl(3-pyridyl)}-N-(3-pyridylmethyl)carboxamide]
1160 | N#Cc1ccccc1-c1ccc(C(=O)NC[C@H]2CCCCN2)c(NCCc2cccc(F)c2)n1 [N-[((2R)(2-piperidyl))methyl](6-(2-cyanophenyl)-2-{[2-(3-fluorophenyl)ethyl]amino}(3-pyridyl))carboxamide]
6390 | O=C1CNC[C@@H](CNC(=O)c2ccc(-c3cc[nH]n3)nc2NCCc2cccc(F)c2)N1 [N-[((2S)-6-oxopiperazin-2-yl)methyl](2-{[2-(3-fluorophenyl)ethyl]amino}-6-pyrazol-3-yl(3-pyridyl))carboxamide]
9040 | CC(C)(C)OC(=O)N1CCC[C@@H]1CNC(=O)c1cc(F)c(-c2ccccc2C#N)nc1NCCc1cccc(F)c1 [tert-butyl (2R)-2-{[(6-(2-cyanophenyl)-5-fluoro-2-{[2-(3-fluorophenyl)ethyl]amino}(3-pyridyl))carbonylamino]methyl}pyrrolidinecarboxylate]
18300 | O=C(O)c1ccc(-c2ccc(C(=O)NCc3cccnc3)c(NCCc3ccccn3)n2)cc1 [4-{6-[(2-(2-pyridyl)ethyl)amino]-5-[N-(3-pyridylmethyl)carbamoyl]-2-pyridyl}benzoic acid]
462 | NCCCn1nccc1CNC(=O)c1ccc(-c2cc[nH]n2)nc1NCCc1cccc(F)c1 [N-{[1-(3-aminopropyl)pyrazol-5-yl]methyl}(2-{[2-(3-fluorophenyl)ethyl]amino}-6-pyrazol-3-yl(3-pyridyl))carboxamide]
198 | O=C(NCc1cccnc1)c1ccc(-c2ccc(F)cc2)nc1NCCc1cccc(F)c1 [(6-(4-fluorophenyl)-2-{[2-(3-fluorophenyl)ethyl]amino}(3-pyridyl))-N-(3-pyridylmethyl)carboxamide]
119 | O=C1CC[C@H](CNC(=O)c2ccc(-c3cn[nH]c3)nc2NCCc2cccc(F)c2)N1 [N-[((2R)-5-oxopyrrolidin-2-yl)methyl](2-{[2-(3-fluorophenyl)ethyl]amino}-6-pyrazol-4-yl(3-pyridyl))carboxamide]
9570 | CC(C)(CNC(=O)c1ccc(-c2ccccc2C#N)nc1NCCc1cccc(F)c1)NC(=O)CNC(=O)OC(C)(C)C
18 | O=C(NCc1cccnc1)c1cc(F)c(-c2cn[nH]c2)nc1NCCc1cccc(F)c1 [(5-fluoro-2-{[2-(3-fluorophenyl)ethyl]amino}-6-pyrazol-4-yl(3-pyridyl))-N-(3-pyridylmethyl)carboxamide]
214 | CN1CCC[C@@H]1CNC(=O)c1ccc(-c2ccccc2C#N)nc1NCCc1cccc(F)c1 [N-[((2R)-1-methylpyrrolidin-2-yl)methyl](6-(2-cyanophenyl)-2-{[2-(3-fluorophenyl)ethyl]amino}(3-pyridyl))carboxamide]
8900 | NCc1cc(C(=O)NCc2cccnc2)c(NCCc2cccc(F)c2)nc1-c1ccccc1 [(5-(aminomethyl)-2-{[2-(3-fluorophenyl)ethyl]amino}-6-phenyl(3-pyridyl))-N-(3-pyridylmethyl)carboxamide]
178 | N#Cc1ccccc1-c1ccc(C(=O)NC[C@H]2CCCCN2S(=O)(=O)CCN)c(NCCc2cccc(F)c2)n1 [N-({(2R)-1-[(2-aminoethyl)sulfonyl](2-piperidyl)}methyl)(6-(2-cyanophenyl)-2-{[2-(3-fluorophenyl)ethyl]amino}(3-pyridyl))carboxamide]
380 | N#Cc1ccccc1-c1ccc(C(=O)NCc2cccnc2)c(NCCc2ccccc2O)n1 [(6-(2-cyanophenyl)-2-{[2-(2-hydroxyphenyl)ethyl]amino}(3-pyridyl))-N-(3-pyridylmethyl)carboxamide]

Structure (SMILES) | IC50 [nM]
CC(C)(C)OC(=O)NCCN1CCC[C@@H]1CNC(=O)c1ccc(-c2ccccc2C#N)nc1NCCc1cccc(F)c1 [N-[((2R)-1-{2-[(tert-butoxy)carbonylamino]ethyl}pyrrolidin-2-yl)methyl](6-(2-cyanophenyl)-2-{[2-(3-fluorophenyl)ethyl]amino}(3-pyridyl))carboxamide] | 3690
CC(C)(C)OC(=O)N[C@@H](CO)C(=O)N1CC[C@@H]1CNC(=O)c1ccc(-c2ccccc2C#N)nc1NCCc1cccc(F)c1 [N-[2-((2R)-2-{[(6-(2-cyanophenyl)-2-{[2-(3-fluorophenyl)ethyl]amino}(3-pyridyl))carbonylamino]methyl}azetidinyl)(1S)-1-(hydroxymethyl)-2-oxoethyl](tert-butoxy)carboxamide] | 2480

Source: patent publication US7932270B2 (Cytokinetics, Inc., priority 2006, dated 2011)
